These results are taken from ChEMBL document CHEMBL5108072, “Discovery of Chlorofluoroacetamide-Based Covalent Inhibitors for Severe Acute Respiratory Syndrome Coronavirus 2 3CL Protease” (J Med Chem, 2022).

Experiment [1] has as its system SARS-CoV-2. The experiment in a line: microbe, parasite or virus in culture. As to conditions: Severe acute respiratory syndrome coronavirus 2, omicron TY38-873 BA.1, HEK-293T.
Experiment [2] concerns SARS-CoV-2. The experiment in a line: microbe, parasite or virus in culture. As to conditions: Severe acute respiratory syndrome coronavirus 2, omicron TY38-873 BA.2, HEK-293T.

As a reminder, the EC50 is the concentration needed to bring the measured effect to its halfway point. A low value points to greater potency. Take `CC(C)C[C@H](NC(=O)c1cc2c(F)cccc2[nH]1)C(=O)NN(C[C@H]1CCNC1=O)C(=O)[C@H](F)Cl`: the EC50 turned out to be 58.7 nM in the experiment on SARS-CoV-2 [1] and 131 nM in the experiment with SARS-CoV-2 [2].

`CC(C)C[C@H](NC(=O)c1cc2c(F)cccc2[nH]1)C(=O)NN(C[C@@H]1CCNC1=O)C(=O)[C@H](F)Cl`: the EC50 is 9.01 nM in the experiment with SARS-CoV-2 [1] and 17.1 nM in the experiment with SARS-CoV-2 [2].

Take `CC(C)C[C@H](NC(=O)c1cc2c(F)cccc2[nH]1)C(=O)NN(C[C@@H]1CCNC1=O)C(=O)[C@@H](F)Cl`: the EC50 in the experiment with SARS-CoV-2 [1] was 35.6 nM; in the experiment with SARS-CoV-2 [2] it was 126 nM.

As for `COc1cccc2[nH]c(C(=O)N[C@@H](CC(C)C)C(=O)NN(C[C@H]3CCNC3=O)C(=O)[C@H](F)Cl)cc12`, the EC50 in the experiment with SARS-CoV-2 [1] stood at 58.8 nM; in the experiment with SARS-CoV-2 [2], 121 nM.

For `COc1cccc2[nH]c(C(=O)N[C@@H](CC(C)C)C(=O)NN(C[C@@H]3CCNC3=O)C(=O)[C@H](F)Cl)cc12`, the EC50 was 10.1 nM with SARS-CoV-2 [1] and 18.3 nM with SARS-CoV-2 [2].

As for `O=c1nc(NO)ccn1[C@@H]1O[C@H](CO)[C@@H](O)[C@H]1O` [N-HYDROXYCYTIDINE], the figures for the EC50 in the experiment with SARS-CoV-2 [1] and in the experiment on SARS-CoV-2 [2] were 574 nM and 336 nM, respectively.

Turning to `COc1cccc2[nH]c(C(=O)N[C@@H](CC(C)C)C(=O)N[C@@H](C[C@@H]3CCNC3=O)C(=O)CO)cc12` [PF-00835231], the results for the EC50 in the experiment on SARS-CoV-2 [1] and in the experiment with SARS-CoV-2 [2] were 775 nM and 832 nM, respectively.
